In patent publication US20240067657A1, “AMIDO-SUBSTITUTED PYRIDYL COMPOUNDS AND METHODS OF USE THEREOF FOR THE TREATMENT OF HERPESVIRUSES” (Merck Sharp & Dohme LLC, priority 2020, published 2024):
Read-outs that look alike come from different tables or passages of the source.

How the values were obtained:
[1] = system: HCMV Strain AD169 in MRC-5 cells; test: Viral qPCR assay HCMV (V0/V1, V2/V3), EC50; type: cell-based; settings: Human betaherpesvirus 5, AD169, MRC5, viral qPCR assay of Example 191; read-out: HCMV Cell (EC50)
In short: (§1)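 Infected cells added to compounds (10-point 3-fold series), ~72 h at 37 °C, then lysed; viral genomes by TaqMan qPCR against plasmid standard, normalized to PPIA in V0/V1 only, EC50 from 4-parameter fit. HCMV AD169, 0.05-0.1 pfu/cell, ± 50% FBS; VZV 0.04-0.1 pfu/cell; HSV-1 F 0.0005-0.004 pfu/cell.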

[2] = system: HSV-1 Strain F in Vero or MRC5 cells; test: Viral qPCR assay HSV-1 (V0/V1, V2/V3), EC50; type: cell-based; settings: 10%
In short: as §1

[3] = target: T1, Human cytomegalovirus DNA polymerase (Human cytomegalovirus, UniProt P08546); test: HCMV polymerase assay (AlphaLISA, IC50); type: biochemical; settings: polymerase assay of Example 190
T1 construct: made in house; host or cells: SF21 insect cells (baculovirus vector)
T1 sequence (P08546 whole entry): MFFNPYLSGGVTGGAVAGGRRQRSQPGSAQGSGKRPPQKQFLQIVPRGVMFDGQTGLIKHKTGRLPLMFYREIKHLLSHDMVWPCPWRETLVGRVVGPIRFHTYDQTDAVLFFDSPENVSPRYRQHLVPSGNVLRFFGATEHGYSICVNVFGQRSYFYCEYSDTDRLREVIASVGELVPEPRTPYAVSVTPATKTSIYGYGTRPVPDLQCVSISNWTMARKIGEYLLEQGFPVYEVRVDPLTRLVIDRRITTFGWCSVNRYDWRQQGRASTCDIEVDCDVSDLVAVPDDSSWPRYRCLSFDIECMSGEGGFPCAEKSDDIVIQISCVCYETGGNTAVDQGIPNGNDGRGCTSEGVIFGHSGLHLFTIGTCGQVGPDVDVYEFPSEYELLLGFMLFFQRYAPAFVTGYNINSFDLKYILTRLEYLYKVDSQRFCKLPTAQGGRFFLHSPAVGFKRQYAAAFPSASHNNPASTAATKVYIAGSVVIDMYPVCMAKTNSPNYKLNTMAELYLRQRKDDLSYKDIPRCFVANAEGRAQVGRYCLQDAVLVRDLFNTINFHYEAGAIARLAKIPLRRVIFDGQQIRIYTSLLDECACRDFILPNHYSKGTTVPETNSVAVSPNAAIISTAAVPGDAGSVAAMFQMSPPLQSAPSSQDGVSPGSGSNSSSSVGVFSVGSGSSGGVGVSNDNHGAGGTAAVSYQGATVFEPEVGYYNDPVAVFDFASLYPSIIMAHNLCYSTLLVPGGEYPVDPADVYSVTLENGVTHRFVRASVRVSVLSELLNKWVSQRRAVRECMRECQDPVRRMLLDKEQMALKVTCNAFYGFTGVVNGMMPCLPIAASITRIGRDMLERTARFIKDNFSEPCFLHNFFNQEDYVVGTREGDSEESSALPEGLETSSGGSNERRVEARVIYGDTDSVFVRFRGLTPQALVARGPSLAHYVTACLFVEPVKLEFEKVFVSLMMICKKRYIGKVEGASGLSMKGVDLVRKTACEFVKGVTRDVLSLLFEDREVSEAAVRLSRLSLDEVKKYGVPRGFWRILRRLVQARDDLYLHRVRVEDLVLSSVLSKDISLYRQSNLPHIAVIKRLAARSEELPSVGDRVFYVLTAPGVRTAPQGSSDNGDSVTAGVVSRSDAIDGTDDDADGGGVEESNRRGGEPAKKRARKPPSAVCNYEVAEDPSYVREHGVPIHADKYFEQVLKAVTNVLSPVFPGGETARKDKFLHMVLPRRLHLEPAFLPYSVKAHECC
In short: (§2)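 Baculovirus-expressed polymerase (HCMV 0.2 nM, VZV 0.4 nM final) preincubated 30 min at room temperature with compound in pH 7.5 HEPES buffer; reaction started with 1.6 nM DIG-primer/template and nM dNTPs including biotin-dUTP, run 60 min at 37° C. Incorporation detected by AlphaLISA; IC50 from 4-parameter fit.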

[4] = target: T2, varicella zoster virus DNA polymerase (Varicella-zoster virus, UniProt P09252); test: VZV polymerase assay (AlphaLISA, IC50); type: biochemical; settings: polymerase assay of Example 190
T2 construct: made in house; host or cells: SF21 insect cells (baculovirus vector)
T2 sequence (P09252 whole entry): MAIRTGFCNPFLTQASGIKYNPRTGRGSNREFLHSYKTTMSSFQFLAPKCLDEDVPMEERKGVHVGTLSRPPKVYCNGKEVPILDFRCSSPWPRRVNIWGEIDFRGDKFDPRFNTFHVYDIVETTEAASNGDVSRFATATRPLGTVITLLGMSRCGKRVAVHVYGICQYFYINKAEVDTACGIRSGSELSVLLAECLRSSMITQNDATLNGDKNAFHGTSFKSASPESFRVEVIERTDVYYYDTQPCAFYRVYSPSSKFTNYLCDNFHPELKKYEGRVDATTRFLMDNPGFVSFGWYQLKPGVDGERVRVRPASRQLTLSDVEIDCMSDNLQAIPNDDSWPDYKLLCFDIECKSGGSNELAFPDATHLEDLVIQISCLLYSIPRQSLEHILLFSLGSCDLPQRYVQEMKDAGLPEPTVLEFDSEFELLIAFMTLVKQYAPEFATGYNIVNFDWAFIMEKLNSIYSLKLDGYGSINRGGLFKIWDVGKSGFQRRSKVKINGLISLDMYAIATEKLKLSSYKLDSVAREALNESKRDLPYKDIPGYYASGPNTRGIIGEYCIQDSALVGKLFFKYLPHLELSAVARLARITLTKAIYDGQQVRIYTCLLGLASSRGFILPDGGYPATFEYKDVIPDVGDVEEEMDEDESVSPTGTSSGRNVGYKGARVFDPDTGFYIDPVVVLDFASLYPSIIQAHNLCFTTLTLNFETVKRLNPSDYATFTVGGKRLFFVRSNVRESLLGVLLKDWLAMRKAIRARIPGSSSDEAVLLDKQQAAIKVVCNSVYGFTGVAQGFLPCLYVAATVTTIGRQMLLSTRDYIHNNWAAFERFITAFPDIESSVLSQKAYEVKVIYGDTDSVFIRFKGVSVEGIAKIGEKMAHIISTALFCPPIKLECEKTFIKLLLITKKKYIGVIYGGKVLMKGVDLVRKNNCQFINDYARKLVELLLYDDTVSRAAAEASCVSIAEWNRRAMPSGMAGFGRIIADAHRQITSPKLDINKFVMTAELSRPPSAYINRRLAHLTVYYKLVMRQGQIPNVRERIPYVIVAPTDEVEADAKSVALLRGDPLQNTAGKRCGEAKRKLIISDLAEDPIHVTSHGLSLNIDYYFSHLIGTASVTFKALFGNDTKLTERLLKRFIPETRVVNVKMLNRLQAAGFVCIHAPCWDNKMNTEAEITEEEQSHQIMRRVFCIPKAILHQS
In short: as §2

[5] = system: VZV in MeWo or MRC5 cells; test: Viral qPCR assay VZV (V0/V1, V2/V3), EC50; type: cell-based; settings: 10%
In short: as §1

[6] = Human alphaherpesvirus 1, Vero, VERO cells, read-out: HSV1 Cell (EC50) VERO 10%
[7] = Human alphaherpesvirus 3, MeWo, MEWO cells, read-out: VZV Cell (EC50) MEWO 10%
[8] = Human alphaherpesvirus 1, MRC5, MRC5 cells, read-out: HSV1 Cell (EC50) MRC5 10%
[9] = Human alphaherpesvirus 3, MRC5, MRC5 cells, read-out: VZV Cell (EC50) MRC5 10%

SMILES | IC50 [3] [nM] | IC50 [4] [nM] | EC50 [1] [nM] | EC50 [2, 6] [nM] | EC50 [5, 7] [nM] | EC50 [2, 8] [nM] | EC50 [5, 9] [nM]
O=C(NCc1ccc(Cl)cc1)c1cc(O[C@H]2CCN3C(=O)CCC[C@@H]3C2)c(-c2cnn(C(F)F)c2)cn1 (single isomer, unassigned) [Compound 161-1] | 130 | 47.3 | 1330 | 461 | 210 |  | 
N#Cc1cnc(C(=O)NCc2ccc(Cl)cc2)cc1O[C@H]1CCN2C(=O)CC[C@@H]2C1 (racemic) [Compound 158] | 67.9 | 40.7 | 1040 | 473 | 574 |  | 
Cn1cc(-c2cnc(C(=O)NCc3ccc(Cl)cc3)cc2O[C@H]2CCN3C(=O)NC[C@H]3C2)cn1 (racemic) [Compound 171] | 219 | 87.7 | 1090 | 1950 | 883 |  | 
Cn1cc(-c2cnc(C(=O)NCc3ccc(F)c(F)c3F)cc2O[C@H]2CCN3C(=O)OC[C@@H]3C2)cn1 [Compound 94] | 31.7 | 21.4 | 111 | 368 | 155 | 412 | 427
CC(C)n1ccc(-c2cnc(C(=O)NCc3ccc(Cl)cc3)cc2O[C@H]2CCN3C(=O)OC[C@@H]3C2)n1 [Compound 15] | 29.2 | 19.9 | 176 | 160 | 159 |  | 
CC(=O)N1CCC(Oc2cc(C(=O)NCc3ccc(Cl)cc3)ncc2-c2cnc(C)o2)CC1 [Compound 66] | 47.4 | 18.6 | 250 |  |  | 242 | 288
CC(=O)N1CCC(Oc2cc(C(=O)NCc3ccc(Cl)cc3)ncc2-c2cn(C)c(C)n2)CC1 [Compound 48] | 31.9 | 29.4 | 373 |  |  | 190 | 294
O=C(NCc1ccc(Cl)cn1)c1cc(O[C@H]2CCN3C(=O)OC[C@@H]3C2)c(-c2cnn(C(F)F)c2)cn1 [Compound 90] | 189 | 105 | 1040 | 853 | 737 | 2550 | 5990
O=C(NCc1ccc(Cl)cc1)c1cc(O[C@H]2CCN3C(=O)OC[C@@H]3C2)c(CN2CCCOCC2)cn1 [Compound 138] | 65.8 | 13.7 | 296 | 420 | 198 |  | 
O=C(NCc1ccc(Cl)cc1)c1cc(O[C@H]2CCN3C(=O)OC[C@@H]3C2)c(CN2CCC(O)CC2)cn1 [Compound 135] | 90 | 41.1 | 634 | 9210 | 344 |  | 
CN(CCCO)Cc1cnc(C(=O)NCc2ccc(Cl)cc2)cc1O[C@H]1CCN2C(=O)OC[C@@H]2C1 [Compound 136] | 214 | 152 | 989 | 9260 | 386 |  | 
CC(=O)N1CCC(Oc2cc(C(=O)NCc3ccc(Cl)cc3)ncc2-c2nnc(C3CC3)s2)CC1 [Compound 57] | 86.9 | 12.7 | 133 |  |  | 110 | 203

Now those with a lower IC50 [3], led by results:

IC50 [3] [nM] | IC50 [4] [nM] | SMILES | EC50 [1] [nM] | EC50 [2, 6] [nM] | EC50 [5, 7] [nM] | EC50 [2, 8] [nM] | EC50 [5, 9] [nM]
1.42 | 1.99 | Cn1cc(-c2cnc(C(=O)NCc3ccc(C#N)c(F)c3)cc2O[C@H]2CCN3C(=O)OC[C@@H]3C2)cn1 [Compound 93] | 66.7 | 241 |  | 124 | 118
13.6 | 13.8 | CC(C)(O)Cc1cnc(C(=O)NCc2ccc(Cl)cc2)cc1O[C@H]1CCN2C(=O)OC[C@@H]2C1 [Compound 111] | 396 | 719 |  | 1120 | 1160
8.59 | 6.54 | COCCn1cc(-c2cnc(C(=O)NCc3ccc(Cl)cc3)cc2O[C@H]2CCN3C(=O)OC[C@@H]3C2)cn1 [Compound 31] | 116 | 309 | 111 | 224 | 260
15.6 | 13.9 | CC(C)n1cc(-c2cnc(C(=O)NCc3ccc(Cl)cc3)cc2O[C@H]2CCN3C(=O)OC[C@@H]3C2)cn1 [Compound 21] | 282 | 206 | 205 |  | 
6.24 | 2.72 | O=C(NCc1ccc(Cl)cc1)c1cc(O[C@H]2CCN3C(=O)OC[C@@H]3C2)c(-c2cnc(C3CC3)o2)cn1 [Compound 33] | 121 |  |  | 125 | 194
17.4 | 9.12 | O=C(NCc1ccc(Cl)cc1)c1cc(O[C@H]2CCN3C(=O)OC[C@@H]3C2)c(-c2cnn(C3CC3)c2)cn1 [Compound 19] | 214 | 316 | 105 |  | 
5.28 | 6.25 | CC(=O)N1CC[C@@H](Oc2cc(C(=O)NCc3ccc(Cl)cc3)ncc2-c2cnc(C)o2)C[C@H]1C [Compound 165] | 141 |  |  | 122 | 138
5.46 | 3.36 | Cn1cc(-c2cnc(C(=O)NCc3ccc(Cl)c(F)c3)cc2O[C@H]2CCN3C(=O)OC[C@@H]3C2)cn1 [Compound 96] | 86.3 | 118 | 53.6 | 71 | 132
2.73 | 0.55 | Cc1ncc(-c2cnc(C(=O)NCc3ccc(Cl)cc3)cc2O[C@H]2CCN3C(=O)OC[C@@H]3C2)o1 [Compound 32] | 76.8 |  |  | 75 | 106
15.9 | 6.03 | O=C(NCc1ccc(Cl)cc1)c1cc(O[C@H]2CCN3C(=O)OC[C@@H]3C2)c(-c2cscn2)cn1 [Compound 37] | 115 | 35.6 | 20.8 | 100 | 130
8.15 | 7.5 | CC(C)(O)Cn1cc(-c2cnc(C(=O)NCc3ccc(Cl)cc3)cc2O[C@H]2CCN3C(=O)OC[C@@H]3C2)cn1 [Compound 35] | 396 | 1000 |  | 205 | 440
10.4 | 9.39 | O=C(NCc1ccc(Cl)cc1)c1cc(O[C@H]2CCN3C(=O)OC[C@@H]3C2)c(-c2nccs2)cn1 [Compound 40] | 55.7 | 30.8 | 16.7 |  | 
14.8 | 13.4 | CN(Cc1cnc(C(=O)NCc2ccc(Cl)cc2)cc1O[C@H]1CCN2C(=O)OC[C@@H]2C1)[C@H]1CCOC1 [Compound 143] | 253 | 471 |  |  | 1270
19.2 | 9.04 | O=C(NCc1ccc(Cl)cc1)c1cc(O[C@H]2CCN3C(=O)OC[C@@H]3C2)c(N2CC(O)C2)cn1 [Compound 122] | 121 |  |  | 520 | 582
0.222 | 1.12 | O=C(NCc1ccc(Cl)cc1)c1cc(O[C@H]2CCN3C(=O)OC[C@@H]3C2)c(-c2cnc(CO)s2)cn1 [Compound 22] | 68.8 | 224 |  | 150 | 109
6.9 | 4.77 | O=C(NCc1ccc(Cl)cc1)c1cc(O[C@H]2CCN3C(=O)OC[C@@H]3C2)c(-c2cnn(CCO)c2)cn1 [Compound 34] | 71.3 | 1240 | 190 | 412 | 
